Assays:
Cytochrome P450 2B6 [1] = target: T1, Cytochrome P450 2B6 (Homo sapiens, UniProt P20813); experiment: Drug metabolism assessed as CYP2B6 (unknown origin)-mediated metabolite formation by measuring Kcat; type: ADME
T1 sequence (P20813 whole entry): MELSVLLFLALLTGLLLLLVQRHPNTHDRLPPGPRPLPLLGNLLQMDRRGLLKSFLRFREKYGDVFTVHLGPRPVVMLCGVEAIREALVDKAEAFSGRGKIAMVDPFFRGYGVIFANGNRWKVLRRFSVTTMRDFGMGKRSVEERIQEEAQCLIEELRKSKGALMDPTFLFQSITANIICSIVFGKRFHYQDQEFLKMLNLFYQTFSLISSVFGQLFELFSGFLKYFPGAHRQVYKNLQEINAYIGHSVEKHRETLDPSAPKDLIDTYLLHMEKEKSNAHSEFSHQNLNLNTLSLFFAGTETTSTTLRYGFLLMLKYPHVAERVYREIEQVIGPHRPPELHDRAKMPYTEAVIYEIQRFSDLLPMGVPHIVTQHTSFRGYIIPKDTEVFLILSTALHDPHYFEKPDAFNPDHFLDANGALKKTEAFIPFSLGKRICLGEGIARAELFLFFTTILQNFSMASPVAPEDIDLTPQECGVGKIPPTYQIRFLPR

Cytochrome P450 2B6 [2] = target: T1, Cytochrome P450 2B6; experiment: Binding affinity to recombinant CYP2B6 (unknown origin) assessed as spectral dissociation constant-1; details: read-out: Ks
Cytochrome P450 2B6 [3] = target: T1, Cytochrome P450 2B6; experiment: Drug metabolism assessed as CYP2B6 (unknown origin)-mediated metabolite formation by measuring km; type: ADME
Cytochrome P450 2B6 [4] = target: T1, Cytochrome P450 2B6; experiment: Drug metabolism assessed as CYP2B6 (unknown origin)-mediated d4-BuOH metabolite formation by measuring Kcat; type: ADME
Cytochrome P450 2B6 [5] = target: T1, Cytochrome P450 2B6; experiment: Drug metabolism assessed as CYP2B6 (unknown origin)-mediated d4-BuOH metabolite formation by measuring km; type: ADME
Cytochrome P450 2B6 [6] = target: T1, Cytochrome P450 2B6; experiment: Drug metabolism assessed as CYP2B6 (unknown origin)-mediated d9-BuOH metabolite formation by measuring km; type: ADME
Cytochrome P450 2B6 [7] = target: T1, Cytochrome P450 2B6; experiment: Drug metabolism assessed as CYP2B6 (unknown origin)-mediated d9-BuOH metabolite formation by measuring Kcat; type: ADME
Cytochrome P450 2B6 [8] = target: T1, Cytochrome P450 2B6; experiment: Binding affinity to recombinant CYP2B6 (unknown origin) assessed as spectral dissociation constant-2; details: read-out: Ks

SMILES | Kcat (Cytochrome P450 2B6 [1]) [s⁻¹] | Kd (Cytochrome P450 2B6 [2]) [µM] | Km (Cytochrome P450 2B6 [3]) [µM] | Kcat (Cytochrome P450 2B6 [4]) [s⁻¹] | Km (Cytochrome P450 2B6 [5]) [µM] | Km (Cytochrome P450 2B6 [6]) [µM] | Kcat (Cytochrome P450 2B6 [7]) [s⁻¹] | Kd (Cytochrome P450 2B6 [8]) [µM]
CC(NC(C)(C)C)C(=O)c1cccc(Cl)c1 (racemic) [BUPROPION] | 0.14 | 314 | 94.7 |  |  |  |  | 
[2H]C([2H])([2H])[C@@]([2H])(NC(C)(C)C)C(=O)c1cccc(Cl)c1 |  | 11300 |  | 0.061 | 266 |  |  | 
[2H]C([2H])([2H])[C@]([2H])(NC(C)(C)C)C(=O)c1cccc(Cl)c1 |  | 2870 |  | 0.05578 | 131 |  |  | 
[2H]C([2H])([2H])C(N[C@@]([2H])(C)C(=O)c1cccc(Cl)c1)(C([2H])([2H])[2H])C([2H])([2H])[2H] |  | 10.3 |  |  |  | 279 | 0.02462 | 1140
[2H]C([2H])([2H])C(N[C@]([2H])(C)C(=O)c1cccc(Cl)c1)(C([2H])([2H])[2H])C([2H])([2H])[2H] |  | 3.91 |  |  |  | 264 | 0.003865 | 1180

Reference: ChEMBL document CHEMBL5214950 (Bioorg Med Chem Lett, 2022)
